In PubChem BioAssay AID652047 (Broad Institute, 2013):
Active and inactive are the calls of the source.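 How the source made its calls: active means fitted curve reaches activity change of -35% signal drop at a concentration below twice the top valid tested dose; inactive means the rest, including activity in the opposite direction.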

Key:
[1] = antimalarial activity against intraerythrocytic 3D7 parasites – 3D7 strain, red blood cells, SYBR Green, cherry-picked, dose response (AID 652047);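 on activity change, negative = inhibition: 0% = untreated neutral control wells and -100% = mefloquine positive control wells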; settings: P. falciparum 3D7 in RBCs, SYBR Green DNA fluorescence; at 50 µM (top of the series)
[2] = test system: P. falciparum 3D7 in RBCs, SYBR Green DNA fluorescence; assay: as above

Structure (SMILES)	activity change, negative = inhibition [1]	AC35 [2]
FC(F)(F)c1cccc(N2CCc3cn[nH]c32)c1	-2.82% (inactive)	–
Nc1nc(-c2ccc(Oc3ccccc3)cc2)cs1	-0.359% (inactive)	–
CCCn1c2ccccc2c2cc(C(=O)O)ccc21	17.1% (inactive)	–
CCC(Oc1ccc(Br)cc1Cl)C(=O)Nc1nnc(C2CC2)s1 (configuration not stated)	-18.5% (inactive)	–
Clc1ccc(-c2n[nH]c3c2CCC3)cc1Cl	19.2% (inactive)	–
CC12CCC(O)CC1=CCC1C2CCC2(C)C3=NN=CC3CC12 (configuration not stated)	-27.5% (inactive)	–
O=C(c1ccccc1)N1C(=O)C(c2ccccc2)Oc2ccccc21 (configuration not stated)	-36.8% (inactive)	–
O=C(N/N=C/c1cc(Cl)cc([N+](=O)[O-])c1O)c1ccccc1NS(=O)(=O)c1cccs1	3.85% (inactive)	–
O=C1Nc2c(Br)cccc2C1=O	-4.37% (inactive)	–
COC(=O)COC(=O)c1ccccc1NC(=O)c1ccccc1	-21% (inactive)	–
CC(C)CSc1n[nH]c(=S)s1	-1.47% (inactive)	–
COc1cccc(CC(=O)Nc2ccc3nc(C)sc3c2)c1	-2.47% (inactive)	–
Cc1cc(NS(=O)(=O)c2ccc(C3CCCCC3)cc2)no1	27.3% (inactive)	–
CCCCC(CC)c1nnc(NC(=O)c2cccs2)s1 (configuration not stated)	-12.7% (inactive)	–
CCOc1ccc(N/N=C(/C#N)C(N)=O)cc1	-29.8% (inactive)	–
CCn1c(CNc2ccc(Cl)cc2)nnc1SCc1ccccc1	-1.95% (inactive)	–
CCc1ccc(OCc2n[nH]c(=S)n2Cc2ccccc2)cc1	–	32 µM
Cc1cccc(N2CCN(C(=O)C3COc4ccccc4O3)CC2)c1C (configuration not stated)	–	34.3 µM
O=C(CSc1ccc(-c2ccccn2)nn1)c1ccccc1	–	20 µM

Structure (SMILES)	activity change, negative = inhibition [1]	AC35 [2]
Cc1nn(CCC#N)c(N)c1C1(O)C(=O)Nc2c(Cl)cc(Cl)cc21 (configuration not stated)	–	16 µM
COc1cccc(/C=N/Nc2ncnc3scc(-c4ccccc4)c23)c1O	–	1.91 µM
Cc1cccc(Nc2nc(-c3ccc(O)cc3O)cs2)n1	–	20.3 µM
Cc1csc(NC(=O)C(C)Oc2ccc(Cl)cc2C)n1 (configuration not stated)	–	38.3 µM
CC(=O)Nc1cccc(NC(=O)CSc2ccc(-c3ccccn3)nn2)c1	–	14 µM
Cc1ccc2c(C)c3ccc4ccccc4c3c[n+]2c1	–	0.0368 µM
COc1ccc(N=N/C(=C\O)C(=O)c2cccs2)cc1	–	7.16 µM
O=P(Nc1cccnc1)(Oc1ccccc1Cl)Oc1ccccc1Cl	–	40.7 µM
Clc1ccc(C(Cn2ccnc2)OCc2c(Cl)cccc2Cl)c(Cl)c1 (configuration not stated)	–	2.76 µM
CC(=O)C1=C(c2cccc([N+](=O)[O-])c2)N(C(C)=O)n2c(C)nnc2S1	–	0.836 µM
Cc1ccc(-c2c3c(nc4sc(C(N)=O)c(N)c24)CCCC3)o1	–	42.6 µM
O=C(CCCSc1ccccc1)Nc1nc(-c2ccccn2)cs1	–	6.69 µM
CCCCC(=O)NC(c1ccco1)c1cc(Cl)c2cccnc2c1O (configuration not stated)	–	1.48 µM
CC(/C=N/n1c(COc2ccccc2)n[nH]c1=S)=C\c1ccccc1	–	37.3 µM
Oc1c(C(Nc2cccc(C(F)(F)F)c2)c2ccncc2)ccc2cccnc12 (configuration not stated)	–	0.879 µM
CCCCCOc1ccc(CSc2n[nH]c(C)n2)cc1	–	18.6 µM
Cc1ccc(O)c(-c2cc(-c3ccccc3C)[nH]n2)c1	–	10.8 µM
O=C(Oc1c(Cl)cc(Cl)c2cccnc12)c1cccs1	–	17.7 µM
Cc1nc(-c2ccccn2)nc(N(C)c2ccccc2)c1Cl	–	3.26 µM

Structure (SMILES)	activity change, negative = inhibition [1]	AC35 [2]
C=CCNC(=S)N1CCC(Cc2ccccc2)CC1	–	43.5 µM
O=C1c2cccc(Cl)c2C(=O)c2c1cccc2N1CCCC1	–	22.7 µM
COc1cccc(/C=N/NC(=O)c2nc(-c3ccccc3)cc(-c3ccccc3)n2)c1O	–	6.29 µM
O=C(Nc1ccc(Cl)cc1C(=O)Nc1ccc(Br)cn1)c1ccco1	–	15.1 µM
O=Cc1cc(N=Nc2ccccc2Cl)ccc1O	–	2.77 µM
C=CCc1ccc(O)c(-c2ccc(O)c(CC=C)c2)c1	–	15.8 µM
COc1cc(NS(=O)(=O)c2ccc(C)cc2)c2ncccc2c1	–	6.47 µM
CC(C)(C)C(O)C(Cc1ccccc1Cl)n1cncn1 (configuration not stated)	–	25.7 µM
CC1(C(=O)OCC(=O)Nc2ccc3ccccc3c2)CC1(Cl)Cl (configuration not stated)	–	42.6 µM
Oc1c(CN2CCCC2)cc(COCc2ccccc2)c2cccnc12	–	13.8 µM
Cc1cc(-c2ccccc2)n(-c2cc(N/N=C/c3ccccc3O)ncn2)n1	–	3.99 µM
COc1cnc(-c2ccccn2)nc1Sc1ccc(C)cc1	–	1.73 µM
Oc1ccc(Br)cc1/C=N/Nc1ccccn1	–	2.68 µM
O/N=C(\c1ccc(Cl)cc1)c1cc2ccccc2o1	–	8.56 µM
Fc1ccc(CCNC(=S)Nc2ccc(F)c(Cl)c2)cc1	–	15.9 µM
NC(=Nc1nc(-c2ccccn2)cc2ccccc12)c1ccccn1	–	0.0527 µM
COc1cnc(-c2ccccn2)nc1Sc1ccccc1	–	4.67 µM
Cc1ccc(S(=O)(=O)Nc2ccc(O)c3cccnc23)cc1	–	7.02 µM
CCCS(=O)(=O)c1c(S(=O)(=O)CCC)c2c(C)cccn2c1C(=O)N/N=C/c1cc(O)cc(O)c1	–	8.14 µM
